The values that follow come from patent publication US10738041B2, “Ferroportin inhibitors” (Vifor (International) AG, priority 2015, dated 2020).

Marks after values point to notes of the source that are not given here.

Format in all cases: in vivo, mouse
One assay has as its system naïve WT C57BL/6 mice. Kind of assay: Hypoferremia in naïve mice. Conditions: Mus musculus, po, 3 h, naïve WT C57BL/6 mice, relative to vehicle, read-out: Serum Iron Reduction at 3 h (%); for inhibition in vivo at 10 mg/kg: Dose 10 mg/kg p.o.; for inhibition in vivo at 30 mg/kg: Dose 30 mg/kg p.o.; for inhibition in vivo at 100 mg/kg: Dose 100 mg/kg p.o. As for the experimental part:
Female C57BL/6 mice (Janvier, France) at age of 9 weeks were fed a standard diet (Harlan Provimi Kliba 3436) and treated per os (p.o.) with compounds or the corresponding amount of vehicle at a volume of 10 ml/kg body weight. Fpn inhibitors were formulated in 0.5% methylcellulose/water or 20% cremophor EL/water and dosed p.o. in mice at 10, 30 or 100 mg/kg body weight. Three hours later, mice were pre terminally anesthetized in isoflurane chambers and blood was collected by retro-orbital bleeding. Mice were sacrificed by cervical dislocation and spleens, livers and duodena were harvested and used for biomarker analysis. All experiments have been conducted in compliance with the license approved by the responsible veterinarian authorities. Serum was isolated by centrifugation of blood into gel-containing microtainers and serum iron was determined by the MULTIGENT Iron assay (Abbott Diagnostics, 6K95). Eight mice per group were used and one-way ANOVA with Bonferroni's multiple comparison test was performed to analyze the statistical differences between the experimental groups.

Assay [1] concerns b2m−/− mice. As to the kind of experiment: Correction of hyperferremia in beta2-microglobulin deficient mice. The settings on record: for Serum Iron Reduction (%): blood collected 3 hours (##) after administration. From the text:
Mutations in genes involved in sensing the systemic iron stores, such as hepcidin (Hamp1), hemochromatosis protein (HFE), hemojuvelin (HJV) and transferrin receptor 2 (TFR2) cause iron overload in mice and men. HFE, HJV and TFR2 molecules on hepatocytes are necessary for signaling of appropriate hepcidin production and their deficiency results in pathophysiologically low hepcidin levels and excessive iron absorption. HFE mutations is the most frequent cause of hereditary hemochromatosis (HH) in Caucasian adults. HFE is a MHC class I-like membrane molecule that associates with beta 2-microglobulin and participates in hepcidin transcriptional regulation through the bone morphogenetic protein receptor (BMPR) pathway. HFE−/− mice have decreased hepcidin levels, develop hyperferremia and high hepatic iron levels, which makes them a suitable animal model for studying iron overload in humans (Zhou, 1998). Mice deficient in beta 2-microglobulin (b2m−/−) develop hyperferremia and hemochromatosis similarly to HFE−/− animals, as beta 2-microglobulin is necessary for the cell-surface expression and function of HFE (Rothenberg and Voland, 1996). Due to the unavailability of HFE−/− mice, b2m−/− mice were used as a model of iron overload.
Female and male homozygous b2m−/− mice were supplied from Jackson Laboratories (B6.129P2-B2mtm1Unc/J, Stock Number: 002087) at age of 6 to 7 weeks and fed standard diet (Harlan Provimi Kliba 3436) ad libitum. Age and gender matched WT C57BL/6 mice were supplied by Charles River. To study the acute effects of ferroportin (Fpn) inhibitors in iron overload b2m−/− mice were treated with compounds or the corresponding amount of vehicle at a volume of 10 ml/kg body weight. […] WT controls received only vehicle. Three hours later, mice were pre-terminally anesthetized in isoflurane chambers and blood was collected by retro-orbital bleeding. Mice were sacrificed by cervical dislocation and spleens, livers and duodena were harvested and used for biomarker analysis. All experiments have been performed in compliance with license approved by the responsible veterinarian authorities. Serum was isolated by centrifugation of blood into gel-containing microtainers (BD Biosciences) and serum iron was determined by the MULTIGENT Iron assay (Abbott Diagnostics, Cat. 6K95). Four to nine mice per group were used and one-way ANOVA with Bonferroni's multiple comparison test was applied to analyze the statistical differences between the experimental groups.

Assay [2] deals with b2m−/− mice. Kind of assay: Prevention of iron overload in beta2-microglobulin deficient mice. The settings on record: 14 day treatment; for Total Liver Iron Reduction (%) / Total Spleen Iron Increase (%): ICP-OES; for 58Fe Liver Iron Reduction (%): ICP-MS. The procedure:
The efficacy of the Fpn inhibitors to prevent liver iron accumulation in b2m−/− mice was investigated. Three weeks old b2−/− mice fed LID were dosed with either Fpn inhibitor or vehicle (methylcellulose; 10 ml/kg). Mice had access to drinking water supplemented with 1 mM^58Fe(II)-sulfate and 10 mM ascorbic acid. Dosing of Fpn inhibitor or vehicle followed by exposure to iron-containing water was repeated for 14 days. Mice were euthanized and the liver and spleen iron contents were analyzed by ICP-OES (all iron isotopes) and liver tissue was also analyzed for ^58Fe concentration (ICP-MS).

In the case of `O=C(NCc1ccccn1)c1csc(CCNCc2nc3ccccc3[nH]2)n1` [Example 12], in the assay on naïve WT C57BL/6 mice, the inhibition in vivo at 10 mg/kg was determined as 15%, the inhibition in vivo at 30 mg/kg worked out at 20% and the inhibition in vivo at 100 mg/kg turned out to be 45%.
As to `O=C(NC1CCc2cccnc21)c1csc(CCNCc2nc3ccccc3[nH]2)n1` (stereo not shown) [Example 39], in the assay on naïve WT C57BL/6 mice, the inhibition in vivo at 10 mg/kg was determined as 10%, the inhibition in vivo at 30 mg/kg was determined as 20% and the inhibition in vivo at 100 mg/kg was 35%.
In the case of `Cc1cnccc1CNC(=O)c1csc(CCNCc2nc3ccccc3[nH]2)n1` [Example 90], in the assay with naïve WT C57BL/6 mice, the inhibition in vivo at 10 mg/kg worked out at 0%, the inhibition in vivo at 30 mg/kg is 0% and the inhibition in vivo at 100 mg/kg is 40%.
On to `O=C(NCc1ncccc1F)c1csc(CCNCCc2nc3ccccc3[nH]2)n1` [Example 94], for which the “correction of elevated serum iron” value with b2m−/− mice [1] (b2m−/− mice, 50 mg/kg p.o. for 3 h (FIG. 5)) is given as “corrected the elevated serum iron to the levels observed in WT controls”. In the assay on naïve WT C57BL/6 mice, the inhibition in vivo at 10 mg/kg turned out to be 30%, the inhibition in vivo at 30 mg/kg is 50% and the inhibition in vivo at 100 mg/kg was determined as 80%. Also, in the assay with b2m−/− mice [2] (female, 60 mg/kg p.o. b.i.d.), the “Total Liver Iron Reduction (%)” value came out at 57% and the “Total Spleen Iron Increase (%)” value is given as 65%. Further, in the assay with b2m−/− mice [2] (male, 60 mg/kg p.o. b.i.d.), the “Total Liver Iron Reduction (%)” value was 79%.
Turning to `O=C(NCc1ncccc1F)c1csc(CNCCc2nc3ccccc3[nH]2)n1` [Example 118], in the assay on naïve WT C57BL/6 mice, the inhibition in vivo at 10 mg/kg worked out at 8%, the inhibition in vivo at 30 mg/kg stood at 24% and the inhibition in vivo at 100 mg/kg is 49%.
Take `O=C(NCc1ncccc1F)c1coc(CCNCc2nc3ccccc3[nH]2)n1` [Example 126]: in the assay on naïve WT C57BL/6 mice, the inhibition in vivo at 10 mg/kg is 7%, the inhibition in vivo at 30 mg/kg amounted to 23% and the inhibition in vivo at 100 mg/kg was 62%.
On to `O=C(NCc1ccccn1)c1coc(CCNCc2nc3ccccc3[nH]2)n1` [Example 137], for which, in the assay with naïve WT C57BL/6 mice, the inhibition in vivo at 10 mg/kg is -2%, the inhibition in vivo at 30 mg/kg came out at 14% and the inhibition in vivo at 100 mg/kg is 25%.
Turning to `O=C(NCc1ncccc1F)c1nc(CCNCCc2nc3ccccc3[nH]2)sc1Cl` [Example 154], in the assay with naïve WT C57BL/6 mice, the inhibition in vivo at 10 mg/kg was determined as 13%, the inhibition in vivo at 30 mg/kg is 35% and the inhibition in vivo at 100 mg/kg came to 56%.
For the compound `O=C(NCc1ncccc1F)c1coc(C2CN(CCc3nc4ccccc4[nH]3)C2)n1` [Example 208], the “Serum Iron Reduction (%)” value in the assay with b2m−/− mice [1] (female, Dose 20 mg/kg oral) is on record as 9%; in the assay with b2m−/− mice [1] (female, Dose 60 mg/kg oral), 49*** %; with b2m−/− mice [1] (male, Dose 20 mg/kg oral), 44%; with b2m−/− mice [1] (male, Dose 60 mg/kg oral), 67** %. Besides, in the assay with naïve WT C57BL/6 mice, the inhibition in vivo at 10 mg/kg was 50%. Moreover, the inhibition in vivo at 30 mg/kg in the assay with naïve WT C57BL/6 mice came to 65%. In the assay with naïve WT C57BL/6 mice, the inhibition in vivo at 100 mg/kg is 73%. Besides, the “58Fe Liver Iron Reduction (%)” value is reported as 71* % in the assay with b2m−/− mice [2] (female, 20 mg/kg p.o. b.i.d.); 87** % in the assay on b2m−/− mice [2] (female, 60 mg/kg p.o. b.i.d.); 58% with b2m−/− mice [2] (male, 20 mg/kg p.o. b.i.d.); 94** % in the assay on b2m−/− mice [2] (male, 60 mg/kg p.o. b.i.d.). The “Total Liver Iron Reduction (%)” value is 15% in the assay with b2m−/− mice [2] (female, 20 mg/kg p.o. b.i.d.); 8% with b2m−/− mice [2] (female, 60 mg/kg p.o. b.i.d.); 84** % with b2m−/− mice [2] (male, 60 mg/kg p.o. b.i.d.). Moreover, the “Total Spleen Iron Increase (%)” value is recorded as 56** % in the assay with b2m−/− mice [2] (female, 20 mg/kg p.o. b.i.d.); 150*** % in the assay with b2m−/− mice [2] (female, 60 mg/kg p.o. b.i.d.); 21% in the assay with b2m−/− mice [2] (male, 20 mg/kg p.o. b.i.d.); 43% with b2m−/− mice [2] (male, 60 mg/kg p.o. b.i.d.).
As to `O=C(NCc1ncccc1F)c1coc(CCNCCc2nc3c(F)cccc3[nH]2)n1` [Example 228], in the assay with naïve WT C57BL/6 mice, the inhibition in vivo at 10 mg/kg stood at 13%, the inhibition in vivo at 30 mg/kg is 26% and the inhibition in vivo at 100 mg/kg was found to be 55%.
In the same order, the values of `O=C(NCc1ncccc1F)c1coc(C2CN(CCc3nc4c(F)cccc4[nH]3)C2)n1` [Example 239] are 12%, 20% and 51%.
Turning to `O=C(NCc1ncccc1F)c1coc(CCNCCc2nc3cc(F)ccc3[nH]2)n1` [Example 250], in the assay with naïve WT C57BL/6 mice, the inhibition in vivo at 10 mg/kg came out at 5%, the inhibition in vivo at 30 mg/kg came to 18% and the inhibition in vivo at 100 mg/kg stood at 40%.
For the compound `O=C(NCc1ncccc1F)c1cncc(C2CN(CCc3nc4ccccc4[nH]3)C2)c1` [compound 237], in the assay on naïve WT C57BL/6 mice, the inhibition in vivo at 10 mg/kg amounted to 0%, the inhibition in vivo at 30 mg/kg was 15% and the inhibition in vivo at 100 mg/kg worked out at 27%.
